These results are taken from ChEMBL document CHEMBL1201862, “PubChem BioAssay data set” (2004).

Assay [1] has as its system HEK293. The assay can be described thus: NOD2 signaling inhibitors in MDP-stimulated cells, cell-based, uHTS, luminescence (AID 2001). As to conditions: Homo sapiens. It counts as functional.
Assay [2] has as its system HEK293. The assay can be described thus: inhibition of NOD1-driven NF-kB reporter – cell-based, luminescence, uHTS, primary screen (AID 1578). The format is functional. As to conditions: Homo sapiens.
Assay [3] has as its system BJ. The assay can be described thus: cells. The format is functional, cell-based. As to conditions: Homo sapiens.
Assay [4] concerns BJ. The assay can be described thus: growth inhibition of engineered Ras-driven BJ cells – cell-based, alamar blue fluorescence, cherrypicked samples, dose response (AID 2631).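 Further: confirmatory dose-response assay in RAS-dependent BJ fibroblasts engineered with TERT, LT and ST, with cytotoxicity read by fluorescence.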 The format is functional. The settings on record: Homo sapiens. (Resazurin is reduced to fluorescent resorufin, in cell work by metabolically active cells.)
Assay [5] deals with BJ. The assay can be described thus: BJ-TERT fibroblast viability loss – cell-based, RAS-independent, luminescence, dose response (AID 1933). The settings on record: Homo sapiens. The format is functional.
Assay [6] deals with HEK293. Kind of assay: cells. As to conditions: Homo sapiens. It counts as functional, cell-based.
A short description of assay [7]: DRD fibroblast viability loss – cell-based, non-viral oncogenic, luminescence, dose response (AID 1934). The format is functional. The settings on record: Homo sapiens.
In assay [8] the test system is HEK293. The assay can be described thus: cells. It counts as functional, cell-based. As to conditions: Homo sapiens. The source holds these as a separate data set.
The test system of assay [9] is BJ. The assay can be described thus: BJ-TERT-LT-ST fibroblast viability loss – cell-based, RAS-independent, luminescence, dose response (AID 1935).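 Further: BJ fibroblasts immortalized with TERT plus LT and ST oncogenes.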 The settings on record: Homo sapiens. It counts as functional.
In assay [10] the target is T1, High affinity choline transporter 1 (Homo sapiens, UniProt Q9GZV3).
T1 sequence (Q9GZV3 whole entry): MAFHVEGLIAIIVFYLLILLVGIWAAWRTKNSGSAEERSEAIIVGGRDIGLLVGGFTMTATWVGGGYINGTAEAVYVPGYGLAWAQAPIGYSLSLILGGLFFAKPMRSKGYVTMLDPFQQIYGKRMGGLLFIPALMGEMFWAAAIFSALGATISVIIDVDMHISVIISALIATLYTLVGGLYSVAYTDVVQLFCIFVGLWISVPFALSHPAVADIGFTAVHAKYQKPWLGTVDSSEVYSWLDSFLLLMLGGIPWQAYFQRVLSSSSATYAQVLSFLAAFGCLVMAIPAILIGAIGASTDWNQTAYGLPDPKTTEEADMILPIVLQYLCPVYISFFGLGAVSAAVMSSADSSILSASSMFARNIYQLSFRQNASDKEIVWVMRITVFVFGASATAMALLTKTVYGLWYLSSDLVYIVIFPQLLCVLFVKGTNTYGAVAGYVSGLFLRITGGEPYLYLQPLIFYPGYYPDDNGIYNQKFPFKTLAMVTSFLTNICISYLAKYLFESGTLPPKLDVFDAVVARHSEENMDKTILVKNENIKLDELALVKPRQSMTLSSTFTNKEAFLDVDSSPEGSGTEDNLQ
The assay can be described thus: human choline transporter blockers, potency – cell-based, 10-point CRC, membrane potential dye, dose response (AID 588401).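 Further: membrane potential dye fluorescence of choline-evoked depolarization via CHT.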 It counts as functional.

Assay [11] has as its target T1, High affinity choline transporter 1. The assay can be described thus: human choline transporter blockers, potency – cell-based, 5-point CRC, membrane potential dye, dose response (AID 504840). It counts as functional.
Assay [12] in a line: viability of uninfected HEp-2 cells – cell-based, HTS, cytotoxicity control for RSV inhibitor project, dose response (AID 2410). The format is functional. The settings on record: human respiratory syncytial virus.
A short description of assay [13]: alpha-synuclein stem-loop luciferase translation blockers – H4 neuroglioma cells, luminescence, confirmation (AID 1988). The format is functional, cell-based.
Assay [14] is described as follows: luciferase reporter signal suppression in cells – H4 neuroglioma cells, luminescence, dose response (AID 1990). It counts as functional, cell-based.
Assay [15] has as its system HEK293. The assay can be described thus: HEK293T cell viability loss, resazurin readout – resazurin fluorescence, cytotoxicity control for NF-kB activator project, SAR follow-up (AID 493251). It counts as functional, cell-based. The settings on record: Homo sapiens.
Assay [16] concerns the target T2, Heat shock factor protein 1 (Mus musculus, UniProt P38532).
T2 sequence (P38532 whole entry): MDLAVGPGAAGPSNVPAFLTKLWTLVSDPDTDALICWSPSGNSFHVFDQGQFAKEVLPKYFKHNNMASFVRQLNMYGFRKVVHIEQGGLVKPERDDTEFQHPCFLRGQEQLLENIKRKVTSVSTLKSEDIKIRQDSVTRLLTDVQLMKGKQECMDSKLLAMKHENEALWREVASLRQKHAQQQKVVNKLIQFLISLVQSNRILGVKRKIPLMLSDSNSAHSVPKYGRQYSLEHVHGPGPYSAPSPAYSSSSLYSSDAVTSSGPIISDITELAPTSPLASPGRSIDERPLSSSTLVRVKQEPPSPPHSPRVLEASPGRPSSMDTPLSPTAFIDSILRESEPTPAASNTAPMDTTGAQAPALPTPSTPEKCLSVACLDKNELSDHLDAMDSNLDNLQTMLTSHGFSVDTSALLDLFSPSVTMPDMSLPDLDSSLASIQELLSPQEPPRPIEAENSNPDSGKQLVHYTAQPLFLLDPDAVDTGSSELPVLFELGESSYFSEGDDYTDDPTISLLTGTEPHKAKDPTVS
The assay can be described thus: decrease of HSF1-responsive luciferase luminescence – cell-based, NIH3T3, dose retest, confirmation (AID 2382).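 Further: NIH3T3 fibroblasts with HSF1-driven luciferase reporter stressed by proteasome inhibitor MG132; luminescence from HSF1-driven luciferase expression after 8 hours of MG132 stress.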 It counts as functional.

Active and inactive are the calls of the source. For most assays here, no stated cut-off is given here; in the data, actives have a measured EC50 and inactives only a lower limit.

The term IC50 denotes the point on the concentration scale where inhibition reaches its midpoint. Usually EC50 stands for the midpoint of the concentration-response curve. `Cc1ccc(Nc2nc(N)nc(CCl)n2)c(C)c1`: the values for the IC50 with HEK293 [1], with HEK293 [6] and with HEK293 [8] were 10.5 µM (inactive), > 20 µM (inactive) and 12.8 µM (active), respectively. In addition, the EC50 in the assay on HEK293 [2] is 13.9 µM (active); in the assay with BJ [3], 1.05 µM (active); with BJ [4], 4.45 µM (active); with BJ [5], < 0.12 µM (active); in [7] it was 0.423 µM (active); with BJ [9], 10.4 µM (active).
As to `Cc1ccc[n+](CC(=O)c2ccc(Cl)cc2)c1`, the IC50 in [10] is 0.946 µM (active); in assay [11] it was 1.82 µM (active).
The term CC50 denotes the concentration that lowers cell viability or growth by half. As for `C[C@@H]1C[C@H]2OC(=O)C3(CO3)[C@H]2[C@H](O)[C@]2(C)C(=O)C3OC3[C@@H]12` (stereo not given in full), the half-maximal effective concentration (EC50) with BJ [3] is 14.3 µM (active); in the assay with BJ [4], > 133 µM (inactive); in the assay with BJ [5] it was 17 µM (active); in assay [7], 14.2 µM (active). The CC50 in assay [12] was 15.9 µM (active).
With `CCc1ccc(-c2nc(CSCC(=O)NCc3ccco3)c(C)o2)cc1`, the EC50 in [13] was 12.8 µM (active); in assay [14] it was 14.5 µM (active); in [16], 0.462 µM (active). In addition, the IC50 with HEK293 [15] is > 80 µM (inactive).
